We go through 6 molecules from paper PMC7068720, “Rational Design of Mechanism-Based Inhibitors and Activity-Based Probes for the Identification of Retaining α-L-Arabinofuranosidases” (Journal of the American Chemical Society, 2020).

Like-named read-outs stand apart in the source and are kept apart here.

One series has as its target T1, AnAbfA (GH51) (Aspergillus niger, UniProt A2Q7E0).
T1 construct: gene abfA; synthetic gene in pPICZalpha (vector fragment amplified from untagged AkAbfB plasmid), secreted from Pichia pastoris X-33
T1 sequence (A2Q7E0 26-628): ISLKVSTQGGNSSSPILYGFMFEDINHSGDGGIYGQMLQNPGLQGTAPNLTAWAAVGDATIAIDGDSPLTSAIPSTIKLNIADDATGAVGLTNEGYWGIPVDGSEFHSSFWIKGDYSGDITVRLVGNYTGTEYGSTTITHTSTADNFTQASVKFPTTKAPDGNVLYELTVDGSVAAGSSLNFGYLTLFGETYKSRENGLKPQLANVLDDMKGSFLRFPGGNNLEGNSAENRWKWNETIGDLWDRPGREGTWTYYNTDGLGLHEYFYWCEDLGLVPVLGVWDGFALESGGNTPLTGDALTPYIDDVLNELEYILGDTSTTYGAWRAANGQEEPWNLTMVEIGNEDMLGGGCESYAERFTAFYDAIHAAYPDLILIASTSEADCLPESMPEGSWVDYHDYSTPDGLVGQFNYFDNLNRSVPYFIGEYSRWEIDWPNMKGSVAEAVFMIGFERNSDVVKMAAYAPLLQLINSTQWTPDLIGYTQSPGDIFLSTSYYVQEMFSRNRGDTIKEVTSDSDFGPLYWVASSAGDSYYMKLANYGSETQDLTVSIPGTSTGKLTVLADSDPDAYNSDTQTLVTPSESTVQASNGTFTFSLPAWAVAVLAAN
In words: continuous fluorescence assay, irreversible inhibition kinetics. It is filed as biochemical. The text has this:
continuous fluorescence assay, irreversible inhibition kinetics on AnAbfA (GH51)

Another series deals with T2, AkAbfB (GH54) (Aspergillus luchuensis, UniProt Q8NK89).
T2 construct: gene abfB; pPICZalpha, no purification tag, secreted from Pichia pastoris X-33; EndoH-deglycosylated for MS and crystallography
T2 sequence (Q8NK89 18-499): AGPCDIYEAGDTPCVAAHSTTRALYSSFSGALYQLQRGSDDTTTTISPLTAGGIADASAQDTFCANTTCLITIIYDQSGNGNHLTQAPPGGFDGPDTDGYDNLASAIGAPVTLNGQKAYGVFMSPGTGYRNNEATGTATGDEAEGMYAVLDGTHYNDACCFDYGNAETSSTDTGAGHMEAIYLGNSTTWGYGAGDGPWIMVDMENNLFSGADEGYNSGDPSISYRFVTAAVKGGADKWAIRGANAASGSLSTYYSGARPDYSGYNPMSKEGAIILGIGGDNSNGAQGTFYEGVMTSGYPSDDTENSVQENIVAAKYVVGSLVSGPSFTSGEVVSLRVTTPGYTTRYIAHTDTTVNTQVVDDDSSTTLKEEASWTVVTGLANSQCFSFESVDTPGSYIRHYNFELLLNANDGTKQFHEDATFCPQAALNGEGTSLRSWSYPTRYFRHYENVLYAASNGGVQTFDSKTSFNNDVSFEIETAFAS
The series is described as above. The format is biochemical. From the text: continuous fluorescence assay, irreversible inhibition kinetics on AkAbfB (GH54)

Series [1] addresses T3, GsGH51 (Geobacillus stearothermophilus abfA) (Geobacillus stearothermophilus, UniProt Q9XBQ3).
T3 construct: E. coli BL21(DE3) Gold, pET28a(+), N-terminal TEV-cleavable 6xHis tag removed
Kind of series: X-ray crystallography ([…] Å) and intact MS. The settings on record: covalent; nucleophile E294. It is filed as binding.

In a further series the target is T4, AnAbfB (AbfB, GH54) (Aspergillus niger, UniProt A2R511).
T4 construct: native secreted glycoprotein in arabinan-grown secretome, ~65 kDa on gel (~60 kDa after PNGaseF)
T4 sequence (A2R511 19-499): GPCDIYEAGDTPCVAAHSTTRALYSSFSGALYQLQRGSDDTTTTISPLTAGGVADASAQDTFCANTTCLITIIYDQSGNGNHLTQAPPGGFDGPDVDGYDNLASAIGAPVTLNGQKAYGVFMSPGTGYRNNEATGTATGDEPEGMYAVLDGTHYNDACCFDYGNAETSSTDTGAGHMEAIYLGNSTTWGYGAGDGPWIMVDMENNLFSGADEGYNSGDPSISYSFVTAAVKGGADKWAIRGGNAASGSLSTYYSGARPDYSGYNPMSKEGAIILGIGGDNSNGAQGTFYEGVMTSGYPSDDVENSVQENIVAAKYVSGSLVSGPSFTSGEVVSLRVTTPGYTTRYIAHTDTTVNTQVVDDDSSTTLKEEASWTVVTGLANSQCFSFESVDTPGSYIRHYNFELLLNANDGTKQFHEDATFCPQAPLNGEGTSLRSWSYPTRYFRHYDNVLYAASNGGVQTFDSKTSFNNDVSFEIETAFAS
In words: competition with ABP […] pull-down, LC-MS/MS. The format is biochemical. The settings on record: covalent; 0.1 mM inhibitor 1 h, pH 6.5, 37 °C, then ABP 5.

The target of another series is T5, AbfE (GH51) (Aspergillus niger, UniProt A2QT56).
T5 construct: gene An09g00880; native secreted protein in arabinan-grown secretome
T5 sequence (A2QT56 32-646): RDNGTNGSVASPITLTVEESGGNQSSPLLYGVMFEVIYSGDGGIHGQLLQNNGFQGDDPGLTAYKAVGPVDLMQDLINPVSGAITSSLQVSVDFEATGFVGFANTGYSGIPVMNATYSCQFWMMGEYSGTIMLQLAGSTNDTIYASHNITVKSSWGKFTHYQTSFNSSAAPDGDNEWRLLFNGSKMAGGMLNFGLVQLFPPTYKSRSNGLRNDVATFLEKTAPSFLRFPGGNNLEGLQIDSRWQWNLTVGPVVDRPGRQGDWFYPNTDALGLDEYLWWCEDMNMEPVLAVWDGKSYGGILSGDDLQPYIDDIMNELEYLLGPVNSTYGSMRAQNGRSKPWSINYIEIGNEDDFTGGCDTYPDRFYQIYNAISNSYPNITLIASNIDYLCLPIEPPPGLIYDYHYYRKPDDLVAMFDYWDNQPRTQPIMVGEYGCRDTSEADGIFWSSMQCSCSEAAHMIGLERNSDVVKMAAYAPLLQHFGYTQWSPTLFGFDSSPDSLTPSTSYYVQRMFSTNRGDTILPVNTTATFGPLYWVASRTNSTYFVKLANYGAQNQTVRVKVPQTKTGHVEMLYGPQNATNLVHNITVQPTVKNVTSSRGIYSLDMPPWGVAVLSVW
In words: competition with ABP […] pull-down, LC-MS/MS. It is filed as biochemical. The settings on record: covalent; 0.1 mM inhibitor 1 h, pH 6.5, 37 °C, then ABP 5.

Substrate in series [2]: Cc1cc(=O)oc2cc(O[C@@H]3O[C@@H](CO)[C@H](O)[C@H]3O)ccc12
Kind of series: continuous fluorescence assay, Michaelis-Menten. The format is biochemical, Aspergillus luchuensis. The settings on record: 4-500 μM substrate, 50 mM sodium phosphate pH 7.0, 25 °C.

Substrate in series [3]: Cc1cc(=O)oc2cc(O[C@@H]3O[C@@H](CO)[C@H](O)[C@H]3O)ccc12
Kind of series: continuous fluorescence assay, Michaelis-Menten. The settings on record: 4-500 μM substrate, 50 mM sodium phosphate pH 7.0, 25 °C. It is filed as biochemical, Aspergillus niger.

Where [4] appears, read: covalent; mechanism-based; 4MU-Araf 100 μM, 50 mM sodium phosphate pH 7.0, 25 °C.
[5] abbreviates: read-out: KI; covalent; mechanism-based; 4MU-Araf 100 μM, 50 mM sodium phosphate pH 7.0, 25 °C.
Setting [6] is: 4MU-Araf 100 μM, 50 mM sodium phosphate pH 7.0, 25 °C; up to 0.25 mM inhibitor.
Setting [7] is: covalent; mechanism-based; 4MU-Araf 100 μM, 50 mM sodium phosphate pH 7.0, 25 °C; read-out: KI.

T3 sequence (Q9XBQ3 whole entry): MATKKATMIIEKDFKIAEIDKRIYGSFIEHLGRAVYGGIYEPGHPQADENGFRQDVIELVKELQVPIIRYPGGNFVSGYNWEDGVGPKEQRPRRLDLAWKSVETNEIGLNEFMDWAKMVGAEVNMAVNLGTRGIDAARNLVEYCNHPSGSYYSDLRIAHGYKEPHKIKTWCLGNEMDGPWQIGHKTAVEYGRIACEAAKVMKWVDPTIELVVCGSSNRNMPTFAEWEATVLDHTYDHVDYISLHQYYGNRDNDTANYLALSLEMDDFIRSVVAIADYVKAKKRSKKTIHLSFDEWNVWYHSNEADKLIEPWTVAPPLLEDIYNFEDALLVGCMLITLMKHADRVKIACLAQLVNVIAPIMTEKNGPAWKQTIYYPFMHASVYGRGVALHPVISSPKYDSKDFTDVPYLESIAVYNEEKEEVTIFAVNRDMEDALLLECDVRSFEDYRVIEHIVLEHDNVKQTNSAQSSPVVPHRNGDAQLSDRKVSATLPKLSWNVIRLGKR

On to `O=S1(=O)O[C@@H]2[C@@H](CO)[C@H](O)[C@@H](O)[C@@H]2O1` [compound 6, inhibitor 6], for which the entries for the “kinact/KI” value on AnAbfA (GH51) (setting [4]) and on AkAbfB (GH54) (setting [4]) were 160 ± 20 M⁻¹ s⁻¹ and 240 ± 30 M⁻¹ s⁻¹, respectively. The “X-ray crystallography (1.40 Å) and intact MS” value in series [1] was “full occupancy covalent complex between E294, the known catalytic nucleophile, and each inhibitor”.
With `NCCCCCCCCN1[C@@H]2[C@@H](CO)[C@H](O)[C@@H](O)[C@@H]21` (stereo partly shown) [compound 3, inhibitor 3], the figures for the KI (inactivation) on AnAbfA (GH51) (setting [5]) and on AkAbfB (GH54) (setting [5]) were 210 ± 30 µM and 320 ± 40 µM, respectively.
Turning to `OC[C@H]1[C@H](O)[C@@H](O)[C@@H]2O[C@H]12` [compound 1], the “kinact/KI” value on AnAbfA (GH51) (setting [6]) and on AkAbfB (GH54) (setting [6]) was under 0.1 M⁻¹ s⁻¹ throughout.
With `OC[C@H]1[C@H](O)[C@@H](O)[C@@H]2N[C@H]12` [compound 2, inhibitor 2], the results for the KI (inactivation) at AnAbfA (GH51) (setting [7]) and on AkAbfB (GH54) (setting [7]) were 140 ± 20 µM and 320 ± 50 µM, respectively. Also, the “X-ray crystallography (1.40 Å) and intact MS” value in series [1] was “full occupancy covalent complex between E294, the known catalytic nucleophile, and each inhibitor”. Moreover, the “competition with ABP 5 pull-down, LC-MS/MS” value is “significantly reduced signal for peptides from AbfA, AbfB, and AbfE” at AnAbfB (AbfB, GH54); “significantly reduced signal for peptides from AbfA, AbfB, and AbfE” at AbfE (GH51).

B1: AkAbfB (GH54) (Aspergillus luchuensis IFO 4308) (protein)
chain: T2 sequence (Q8NK89 18-499)
notes: pPICZalpha, no purification tag, secreted from Pichia pastoris X-33; EndoH-deglycosylated for MS and crystallography
B1: in series [2], the Km (commonly the concentration of substrate that gives half-maximal velocity) turned out to be 390 ± 30 µM; the catalytic constant (kcat) (as a rule, the number of substrate molecules converted per active site and unit of time at saturation) came to 3.5 ± 0.167 s⁻¹.

B2: AnAbfA (GH51) (Aspergillus niger CBS 513.88) (protein)
chain: T1 sequence (A2Q7E0 26-628)
notes: synthetic gene in pPICZalpha (vector fragment amplified from untagged AkAbfB plasmid), secreted from Pichia pastoris X-33
With B2, in series [3], the Km came to 240 ± 20 µM and the kcat is 2.17 ± 0.167 s⁻¹.
